Source: DBAASP
In brackets after ≈: the same amount, converted by molar mass. Values belong to the compound of their own block, whether it stands above or below them.

What was measured:
Assay in all cases: ≥ marks a high value that may be exact or a test limit, other limits are often not marked, values filed in µg/mL are converted to µM
[1] = test system: Pseudomonas aeruginosa Ps4
[2] = test system: Staphylococcus aureus ATCC 25923
[3] = test system: Enterococcus faecalis ATCC 29212
[4] = test system: Salmonella enterica serovar Typhimurium
Escherichia coli UB1005 = test system: Escherichia coli UB1005
[5] = test system: Pseudomonas aeruginosa H103
Candida albicans = test system: Candida albicans
[6] = test system: Staphylococcus epidermidis
Candida albicans C627 = test system: Candida albicans C627
[7] = test system: Pseudomonas aeruginosa 213
[8] = test system: Pseudomonas aeruginosa LES400
[9] = test system: Enterococcus faecium mic80
[10] = test system: Staphylococcus aureus C623
[11] = test system: Escherichia coli ESBL 63103
[12] = test system: Pseudomonas syringae pv. syringae DSM 10604
[13] = test system: Clavibacter michiganensis subsp. michiganensis DSM 46294
[14] = test system: Xanthomonas vesicatoria DSM 50861
[15] = test system: Pectobacterium carotovorum subsp. carotovorum DSM 30168
[16] = test system: Pseudomonas syringae pv. tomato DC3000
[17] = test system: Pseudomonas corrugata DSM 7228
[18] = test system: Streptococcus mutans UA159
[19] = test system: Streptococcus gordonii ATCC 10558
[20] = test system: Streptococcus mutans GS-5
[21] = test system: Streptococcus sanguinis ATCC 49295
Micrococcus luteus A270 = test system: Micrococcus luteus A270
Escherichia coli SBS 363 = test system: Escherichia coli SBS 363
Candida albicans MDM8 = test system: Candida albicans MDM8

MIC [1]: ≥ 155 µM
SMILES: CC[C@H](C)[C@H](NC(=O)[C@H](CC(N)=O)NC(=O)[C@H](CCCN=C(N)N)NC(=O)[C@H](CCC(N)=O)NC(=O)[C@H](Cc1c[nH]c2ccccc12)NC(=O)[C@H](Cc1ccccc1)NC(=O)[C@@H](N)CS)C(=O)N[C@@H](CCCN=C(N)N)C(=O)N[C@@H](CCCCN)C(=O)N[C@H](C(=O)N[C@@H](CCCN=C(N)N)C(=O)N[C@@H](CS)C(N)=O)C(C)C [CFWQRNIRKVRC]

MIC [2]: 4 µM (≈ 4.68 µg/mL)
MIC [3]: 16 µM (≈ 18.7 µg/mL)
MIC [4]: 4 µM (≈ 4.68 µg/mL)
MIC (Escherichia coli UB1005): 2 µM (≈ 2.34 µg/mL)
MIC [5]: 16 µM (≈ 18.7 µg/mL)
MIC (Candida albicans): 16 µM (≈ 18.7 µg/mL)
MIC [6]: 2 µM (≈ 2.34 µg/mL)
SMILES: CC[C@H](C)[C@H](N)C(=O)N[C@@H](CCCN=C(N)N)C(=O)N[C@@H](CCSC)C(=O)N[C@@H](CCCN=C(N)N)C(=O)N[C@H](C(=O)N[C@@H](CCCN=C(N)N)C(=O)N[C@H](C(=O)N[C@@H](CC(C)C)C(=O)N[C@@H](CC(C)C)C(=O)O)C(C)C)[C@@H](C)CC [IRMRIRVLL]

MIC [2]: 1.2 µM (≈ 1.57 µg/mL)
MIC [3]: 2.3 µM (≈ 3.01 µg/mL)
MIC [4]: 2.3 µM (≈ 3.01 µg/mL)
MIC (Escherichia coli UB1005): 0.6 µM (≈ 0.785 µg/mL)
MIC [5]: 4.6 µM (≈ 6.02 µg/mL)
MIC (Candida albicans): 4.6 µM (≈ 6.02 µg/mL)
MIC [6]: 0.6 µM (≈ 0.785 µg/mL)
SMILES: CC[C@H](C)[C@H](NC(=O)[C@H](CC(C)C)NC(=O)[C@H](CCSC)NC(=O)[C@H](CCCN=C(N)N)NC(=O)[C@H](Cc1c[nH]c2ccccc12)NC(=O)[C@H](Cc1c[nH]c2ccccc12)NC(=O)[C@H](CCCCN)NC(=O)[C@H](Cc1ccccc1)NC(=O)[C@@H](N)CCCCN)C(=O)O [KFKWWRMLI]

MIC [12]: 0.171 µM (≈ 0.25 µg/mL)
MIC [13]: 1.71 µM (≈ 2.5 µg/mL)
MIC [14]: 1.71 µM (≈ 2.5 µg/mL)
MIC [15]: 6.84 µM (≈ 9.99 µg/mL)
MIC [16]: 0.171 µM (≈ 0.25 µg/mL)
MIC [17]: 0.684 µM (≈ 0.999 µg/mL)
SMILES: CC(C)C[C@H](NC(=O)[C@H](C)NC(=O)[C@H](CCCCN)NC(=O)[C@H](CCCCN)NC(=O)[C@H](C)NC(=O)[C@H](Cc1ccccc1)NC(=O)[C@H](CCCN=C(N)N)NC(=O)[C@@H](N)CC(C)C)C(=O)N[C@@H](CCCCN)C(=O)N[C@@H](CCCCN)C(=O)N[C@@H](CC(C)C)C(=O)N[C@@H](Cc1ccccc1)C(N)=O [LRFAKKALKKLF]

MIC [2]: 44.6 µM (≈ 64 µg/mL)
MIC (Candida albicans C627): ≥ 89.3 µM
MIC [7]: ≥ 89.3 µM
MIC [8]: ≥ 89.3 µM
MIC [9]: ≥ 44.6 µM
MIC [10]: 22.3 µM (≈ 32 µg/mL)
MIC [5]: ≥ 89.3 µM
MIC [11]: ≥ 44.6 µM
SMILES: CC[C@H](C)[C@H](NC(=O)[C@@H](N)CCCN=C(N)N)C(=O)N[C@@H](Cc1c[nH]c2ccccc12)C(=O)N[C@@H](CCCCN)C(=O)N[C@@H](CCCN=C(N)N)C(=O)N[C@@H](Cc1c[nH]c2ccccc12)C(=O)N[C@@H](Cc1c[nH]c2ccccc12)C(=O)N[C@@H](Cc1ccccc1)C(=O)N[C@@H](CCCN=C(N)N)C(=O)O [RIWKRWWFR]

MIC [12]: 0.0633 µM (≈ 0.1 µg/mL)
MIC [13]: 3.16 µM (≈ 5 µg/mL)
MIC [14]: 3.16 µM (≈ 5 µg/mL)
MIC [15]: 6.33 µM (≈ 9.99 µg/mL)
MIC [16]: 6.33 µM (≈ 9.99 µg/mL)
MIC [17]: 0.316 µM (≈ 0.5 µg/mL)
SMILES: CC[C@H](C)[C@H](NC(=O)[C@H](CC(C)C)NC(=O)[C@H](CCCN=C(N)N)NC(=O)[C@H](CCCCN)NC(=O)[C@@H](NC(=O)[C@H](CC(C)C)NC(=O)[C@H](CCCCN)NC(=O)[C@H](CCCCN)NC(=O)[C@H](CCCN=C(N)N)NC(=O)[C@H](CCCCN)NC(=O)[C@H](CCCCN)NC(=O)[C@@H](N)CCCN=C(N)N)[C@@H](C)CC)C(N)=O [RKKRKKLIKRLI]

MIC (Micrococcus luteus A270): 0.39 µM (≈ 0.516 µg/mL)
MIC (Escherichia coli SBS 363): 1.56 µM (≈ 2.06 µg/mL)
MIC (Candida albicans MDM8): 1.56 µM (≈ 2.06 µg/mL)
SMILES: CC[C@H](C)[C@H](NC(=O)[C@H](CC(C)C)NC(=O)[C@H](CO)NC(=O)[C@H](CC(C)C)NC(=O)[C@H](CC(C)C)NC(=O)[C@@H](N)CO)C(=O)N[C@@H](CCCN=C(N)N)C(=O)N[C@@H](CCCCN)C(=O)N[C@@H](Cc1ccccc1)C(=O)N[C@@H](Cc1ccccc1)C(=O)N[C@H](C(N)=O)[C@@H](C)O [SLLSLIRKFFT]

More lines, now with the values behind:

SMILES: NCCCC[C@H](NC(=O)[C@@H](N)CCCCN)C(=O)N[C@@H](CCCN=C(N)N)C(=O)N[C@@H](Cc1c[nH]c2ccccc12)C(=O)N[C@@H](Cc1c[nH]c2ccccc12)C(=O)N[C@@H](Cc1c[nH]c2ccccc12)C(=O)N[C@@H](Cc1c[nH]c2ccccc12)C(=O)N[C@@H](Cc1c[nH]c2ccccc12)C(=O)N[C@@H](CCCN=C(N)N)C(=O)O [KKRWWWWWR]
MIC [2]: 2.64 µM (≈ 4 µg/mL)
MIC (Candida albicans C627): 2.64 µM (≈ 4 µg/mL)
MIC [7]: 21.1 µM (≈ 32 µg/mL)
MIC [8]: 21.1 µM (≈ 32 µg/mL)
MIC [9]: 5.27 µM (≈ 8 µg/mL)
MIC [10]: 1.32 µM (≈ 2 µg/mL)
MIC [5]: 2.64 µM (≈ 4 µg/mL)
MIC [11]: 5.27 µM (≈ 8 µg/mL)

SMILES: NCCCC[C@H](NC(=O)[C@H](Cc1c[nH]c2ccccc12)NC(=O)[C@@H](N)CCCCN)C(=O)N[C@@H](CCCN=C(N)N)C(=O)N[C@@H](Cc1c[nH]c2ccccc12)C(=O)N[C@@H](Cc1c[nH]c2ccccc12)C(=O)N[C@@H](Cc1c[nH]c2ccccc12)C(=O)N[C@@H](Cc1ccccc1)C(=O)N[C@@H](CCCN=C(N)N)C(=O)O [KWKRWWWFR]
MIC [2]: 21.6 µM (≈ 32 µg/mL)
MIC (Candida albicans C627): 21.6 µM (≈ 32 µg/mL)
MIC [7]: ≥ 86.6 µM
MIC [8]: ≥ 43.3 µM
MIC [9]: 21.6 µM (≈ 32 µg/mL)
MIC [10]: 10.8 µM (≈ 16 µg/mL)
MIC [5]: 21.6 µM (≈ 32 µg/mL)
MIC [11]: 10.8 µM (≈ 16 µg/mL)

SMILES: CC(C)C[C@H](NC(=O)[C@H](CCCN=C(N)N)NC(=O)[C@H](Cc1ccccc1)NC(=O)[C@H](Cc1ccccc1)NC(=O)[C@@H](NC(=O)[C@H](CO)NC(=O)[C@@H](N)CC(C)C)[C@@H](C)O)C(=O)N[C@@H](Cc1ccccc1)C(=O)N[C@@H](CC(N)=O)C(=O)N[C@@H](CCCN=C(N)N)C(=O)N[C@@H](CO)C(=O)N[C@@H](Cc1ccccc1)C(=O)N[C@H](C(=O)N[C@@H](CCC(N)=O)C(=O)O)[C@@H](C)O [LSTFFRLFNRSFTQ]
MIC [18]: ≥ 145 µM
MIC [19]: ≥ 145 µM
MIC [20]: ≥ 145 µM
MIC [21]: ≥ 145 µM

SMILES: CC(C)C[C@H](NC(=O)[C@H](CCCN=C(N)N)NC(=O)[C@H](Cc1ccccc1)NC(=O)[C@H](Cc1ccccc1)NC(=O)[C@@H](NC(=O)[C@@H](N)CO)[C@@H](C)O)C(=O)N[C@@H](Cc1ccccc1)C(=O)N[C@@H](CC(N)=O)C(=O)N[C@@H](CCCN=C(N)N)C(=O)N[C@@H](CO)C(=O)N[C@@H](Cc1ccccc1)C(=O)N[C@H](C(=O)N[C@@H](CCC(N)=O)C(=O)NCC(=O)N[C@@H](CCCN=C(N)N)C(=O)N[C@@H](CCCN=C(N)N)C(=O)N[C@@H](CCCN=C(N)N)C(=O)N[C@@H](CCCN=C(N)N)C(=O)N[C@@H](CO)C(=O)N[C@H](C(=O)N[C@@H](CCC(N)=O)C(=O)N[C@@H](Cc1c[nH]c2ccccc12)C(=O)N[C@@H](CS)C(=O)N[C@@H](C)C(=O)O)C(C)C)[C@@H](C)O [STFFRLFNRSFTQGRRRRSVQWCA]
MIC [18]: 3.55 µM (≈ 10.7 µg/mL)
MIC [19]: 16.6 µM (≈ 49.8 µg/mL)
MIC [20]: 4.43 µM (≈ 13.3 µg/mL)
MIC [21]: ≥ 33.1 µM

SMILES: CC(C)C[C@H](NC(=O)[C@H](CCCN=C(N)N)NC(=O)[C@H](Cc1ccccc1)NC(=O)[C@H](Cc1ccccc1)NC(=O)[C@@H](NC(=O)[C@@H](N)CO)[C@@H](C)O)C(=O)N[C@@H](Cc1ccccc1)C(=O)N[C@@H](CC(N)=O)C(=O)N[C@@H](CCCN=C(N)N)C(=O)N[C@@H](CO)C(=O)N[C@@H](Cc1ccccc1)C(=O)N[C@H](C(=O)N[C@@H](CCC(N)=O)C(=O)O)[C@@H](C)O [STFFRLFNRSFTQ]
MIC [18]: ≥ 155 µM
MIC [19]: ≥ 155 µM
MIC [20]: ≥ 155 µM
MIC [21]: ≥ 155 µM

SMILES: CC(C)C[C@H](NC(=O)[C@H](CCCN=C(N)N)NC(=O)[C@H](Cc1ccccc1)NC(=O)[C@H](Cc1ccccc1)NC(=O)[C@@H](N)[C@@H](C)O)C(=O)N[C@@H](Cc1ccccc1)C(=O)N[C@@H](CC(N)=O)C(=O)N[C@@H](CCCN=C(N)N)C(=O)NCC(=O)N[C@@H](CCCN=C(N)N)C(=O)N[C@@H](CCCN=C(N)N)C(=O)N[C@@H](CCCN=C(N)N)C(=O)N[C@@H](CCCN=C(N)N)C(=O)N[C@@H](CO)C(=O)N[C@H](C(=O)N[C@@H](CCC(N)=O)C(=O)N[C@@H](Cc1c[nH]c2ccccc12)C(=O)N[C@@H](CS)C(=O)N[C@@H](C)C(=O)O)C(C)C [TFFRLFNRGRRRRSVQWCA]
MIC [18]: 4.34 µM (≈ 10.7 µg/mL)
MIC [19]: 20.3 µM (≈ 49.8 µg/mL)
MIC [20]: 5.06 µM (≈ 12.4 µg/mL)
MIC [21]: ≥ 40.5 µM
